1 compound from patent publication US20090247646A1, “USE OF RESVERATROL AND DERIVATIVES THEREOF FOR PROMOTING THE WELLNESS STATE IN MAMMALS” (priority 2006, published 2009) can be followed below.

For the test, the system named is gene expression profile of heart, output variable Age. The experiment in a line: Classification of gene expression profile for age (Young/Old) using supervised learning, Support Vector Machine. The format is in vivo, mice. The procedure: Male B6C3F, mice (6-7 weeks of age) were purchased from Harlan Sprague Dawley. Mice were housed singly and provided water ad libitum. The control group (OC, N=5) was fed 98 kcal/week of modified AIN-93M semi-purified diet (Bio-serv, Frenchtown, N.J.), which provides approximately 15% fewer calories than the average ad libitum dietary intake. The treatment group (RES, N=5) was fed the same caloric intake as controls, but were supplemented with resveratrol 50 mg/kg diet (w/w) (3,4′,5-Trihydroxy-trans-stilbene; Sigma) from 14 months of age. Animals (OC and RES) were sacrificed at 30 months of age. Young animals were sacrificed at 5 months of age (YC, N=5). Hearts from all abovementioned groups were collected, immediately frozen in liquid nitrogen and stored at −80° C. until analysis.
Total RNA was extracted from frozen tissue by using TRIZOL reagent (Life Technologies, Grand Island, N.Y.). Polyadenylate [poly(A)^+] RNA was purified from total RNA with oligo-dT-linked oligotex resin (Qiagen, Valencia, Calif.). […]
For the classification analysis, supervised learning using Support Vector Machine (SVM) was performed based on supplied training data, “Young (YC)” and “Old (OC)” groups, to find rules for predicting the output variable “Age”. […] Results from the resveratrol group were then analysed using the Classification function for prediction of the output variable, “Age”. […]

On to `Oc1ccc(/C=C/c2cc(O)cc(O)c2)cc1` [resveratrol, 3,4′,5-Trihydroxy-trans-stilbene], for which the “Classification of chips for output variable Age” value (all 4 chips of resveratrol group) is given as “classified as Young”. The “Average of g (mean classification output of group)” value (mean of 4 chips of the RES group, YC 0.9998575, OC −1.023992) worked out at 0.3486.
